Where two headings read alike, the source gives them in different places.
Columns and labels:
Septoria tritici = type: cell-based
Alternaria solani = type: cell-based
Phytophthora infestans = type: cell-based
Leptosphaeria nodorum = type: cell-based
Pyricularia oryzae = type: cell-based
[1] = system: southern green stink bug (Nezara viridula); test: Test 7: control of southern green stink bug on dipped Lima bean plants; type: in vivo; settings: 50 ppm; mortality (sick + death insects) of second instar at 5 days
Experimental: Beauveria bassiana strain PPRI 5339 was at room temperature for one hour before use.
Seven days old Lima bean plants were dipped into each treatment. Once dried, plants were artificially infested with four second instar southern green stink bugs. Percentage of mortality (sick+ death insects) was evaluated at 5 days.

[2] = system: southern green stink bug (Nezara viridula); test: Test 5: control of southern green stink bug, dipped green beans and bugs; settings: 10 ppm
Botrytis cinerea = type: cell-based; settings: concentration 4

Compound: Fc1ccc([C@]2(Cn3cncn3)O[C@H]2c2ccccc2Cl)cc1 (racemic) [Epoxiconazol, epoxiconazole]
- Observed efficacy (Septoria tritici; concentration 0.25): 35%
- Observed efficacy (Alternaria solani; concentration 0.25): 36%

Compound: CCCCCCCCc1c(CC)nc2ncnn2c1N [Ametoctradin, ametoctradin]
- Observed efficacy (Phytophthora infestans; 0.004 ppm): 0%

Compound: CC(C)(C)[C@]1(O)C[C@@H]2OC(=O)C[C@@]23C(=O)O[C@@H]2OC(=O)[C@H](O)[C@]213 [Bilobalide, (3aS,5aR,8aS,9R,10aR)-9-tert-butyl-8,9-dihydroxydihydro-9H-furo[2,3-b]furo[3′,2′;2,3]cyclopenta[1,2-c]furan-2,4,7(3H,8H)-trione]
- Observed efficacy (Septoria tritici; concentration 1): 6%
- Observed efficacy (Septoria tritici; concentration 4): 8%
- Observed efficacy (Septoria tritici; concentration 16): 9%
- Observed efficacy (Leptosphaeria nodorum; concentration 63): 24%
- Observed efficacy (Alternaria solani; concentration 16): 0%
- Observed efficacy (Alternaria solani; concentration 63): 0%
- Observed efficacy (Pyricularia oryzae; concentration 4): 3%
- Observed efficacy (Pyricularia oryzae; concentration 16): 1%
- Observed efficacy (Pyricularia oryzae; concentration 63): 5%
- Observed efficacy (Phytophthora infestans; 0.063 ppm): 0%
- Observed efficacy (Phytophthora infestans; 0.25 ppm): 4%
- Observed efficacy (Phytophthora infestans; 1 ppm): 24%
- Observed efficacy [1]: 33%

Compound: CC1COC(Cn2cncn2)(c2ccc(Oc3ccc(Cl)cc3)cc2Cl)O1 (stereo not shown) [Difenoconazol, difenoconazole]
- Observed efficacy (Leptosphaeria nodorum; concentration 1): 21%
- Observed efficacy (Alternaria solani; concentration 1): 0%

Compound: CC1(C(=O)Nc2ccc(O)c(Cl)c2Cl)CCCCC1 [Fenhexamid, fenhexamid]
- Observed efficacy (Alternaria solani; concentration 4): 46%

Compound: CO/N=C(/C1=NOCCO1)c1ccccc1Oc1ncnc(Oc2ccccc2Cl)c1F [Fluoxastrobin, fluoxastrobin]
- Observed efficacy (Alternaria solani; concentration 0.25): 11%

Compound: Cn1cc(C(=O)Nc2ccccc2-c2cc(F)c(F)c(F)c2)c(C(F)F)n1 [Fluxapyroxad, fluxapyroxad]
- Observed efficacy [2]: 0%

Compound: C[C@@H]1C(=O)O[C@H]2C[C@@]34[C@H]5C[C@@H](C(C)(C)C)[C@]36[C@@H](OC(=O)[C@@H]6O)O[C@@]4(C(=O)O5)[C@]21O [Ginkgolide A]
- Observed efficacy (Septoria tritici; concentration 63): 16%
- Observed efficacy (Leptosphaeria nodorum; concentration 63): 18%
- Observed efficacy (Alternaria solani; concentration 16): 0%
- Observed efficacy (Alternaria solani; concentration 63): 0%

Compound: CO/C=C(/C(=O)OC)c1ccccc1COc1cccc(C(F)(F)F)n1 [Picoxystrobin, picoxystrobin]
- Observed efficacy (Alternaria solani; concentration 0.25): 39%

Compound: CCCN(CCOc1c(Cl)cc(Cl)cc1Cl)C(=O)n1ccnc1 [Prochloraz, prochloraz]
- Observed efficacy (Septoria tritici; concentration 4): 49%
- Observed efficacy (Botrytis cinerea): 39%

Compound: COC(=O)N(OC)c1ccccc1COc1ccn(-c2ccc(Cl)cc2)n1 [Pyraclostrobin, pyraclostrobin]
- Observed efficacy (Septoria tritici; concentration 0.004): 59%
- Observed efficacy [2]: 0%

Compound: CON=C(C(=O)OC)c1ccccc1CON=C(C)c1cccc(C(F)(F)F)c1 [Trifloxystrobin, trifloxystrobin]
- Observed efficacy (Septoria tritici; concentration 0.004): 7%
- Observed efficacy (Septoria tritici; concentration 0.016): 67%

Compound: chlorothalonil
- Observed efficacy (Leptosphaeria nodorum; concentration 1): 39%
- Observed efficacy (Botrytis cinerea): 53%

From US10334859B2, “Method and pesticidal mixtures for controlling Pentatomidae pests” (BASF SE, priority 2014, dated 2019)
